The values that follow come from PMC8694051 (Proceedings of the National Academy of Sciences of the …, 2021).

Counter-ions that a name gives are not always drawn. Some results are limits rather than exact numbers.

In one assay the target is Cathepsin S (Homo sapiens, UniProt P25774). Briefly: Protease profiling panel, 10-dose IC50. It counts as biochemical.
The target of a further assay is Cathepsin C (Homo sapiens, UniProt P53634). Briefly: Protease profiling panel, 10-dose IC50. In kind it is biochemical.
The target in another assay is Cathepsin V (Homo sapiens, UniProt O60911). Briefly: Protease profiling panel, 10-dose IC50. It counts as biochemical.
For the next assay, the target named is Cathepsin H (Homo sapiens, UniProt P09668). The assay can be described thus: Protease profiling panel, 10-dose IC50. In kind it is biochemical.
Another assay addresses Cathepsin B (Homo sapiens, UniProt P07858). The assay can be described thus: Protease profiling panel, 10-dose IC50. It counts as biochemical.
The next assay has as its target Papain (Carica papaya, UniProt P00784). The assay can be described thus: Protease profiling panel, 10-dose IC50. It counts as biochemical.
Another assay addresses Calpain 1 (Homo sapiens, UniProt P07384). The assay can be described thus: Protease profiling panel, 10-dose IC50. It counts as biochemical.
Another assay deals with Cathepsin L (Homo sapiens, UniProt P07711). Briefly: Protease profiling panel, 10-dose IC50. In kind it is biochemical.
Sequence of Cathepsin L (P07711 114-333, species assumed): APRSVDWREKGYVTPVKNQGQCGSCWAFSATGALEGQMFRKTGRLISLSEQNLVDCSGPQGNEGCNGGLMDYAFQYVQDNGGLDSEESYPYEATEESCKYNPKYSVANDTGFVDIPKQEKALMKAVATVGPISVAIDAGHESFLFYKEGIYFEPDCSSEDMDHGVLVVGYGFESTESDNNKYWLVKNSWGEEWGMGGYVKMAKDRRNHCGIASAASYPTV
For another assay, the target named is T1, HGFA (Homo sapiens, UniProt Q04756).
T1 sequence (Q04756 373-655): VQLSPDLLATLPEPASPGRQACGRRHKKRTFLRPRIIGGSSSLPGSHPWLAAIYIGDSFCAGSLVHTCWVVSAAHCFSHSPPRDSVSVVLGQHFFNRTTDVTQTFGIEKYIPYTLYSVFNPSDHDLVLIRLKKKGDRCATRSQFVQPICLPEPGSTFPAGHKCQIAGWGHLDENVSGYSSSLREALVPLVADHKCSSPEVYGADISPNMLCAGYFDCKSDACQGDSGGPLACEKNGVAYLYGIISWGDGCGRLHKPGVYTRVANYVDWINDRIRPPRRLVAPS
Briefly: HGFA enzyme inhibition (published assays). It counts as biochemical.

A further assay has as its target Thrombin (Homo sapiens, UniProt P00734). The assay can be described thus: Thrombin enzyme inhibition (published assays). It counts as biochemical.
A further assay concerns the target Hepsin (Homo sapiens, UniProt P05981). Briefly: Hepsin enzyme inhibition (published assays). It counts as biochemical.
The target in another assay is T2, Matriptase (Homo sapiens, UniProt Q9Y5Y6).
T2 sequence (Q9Y5Y6 1-855): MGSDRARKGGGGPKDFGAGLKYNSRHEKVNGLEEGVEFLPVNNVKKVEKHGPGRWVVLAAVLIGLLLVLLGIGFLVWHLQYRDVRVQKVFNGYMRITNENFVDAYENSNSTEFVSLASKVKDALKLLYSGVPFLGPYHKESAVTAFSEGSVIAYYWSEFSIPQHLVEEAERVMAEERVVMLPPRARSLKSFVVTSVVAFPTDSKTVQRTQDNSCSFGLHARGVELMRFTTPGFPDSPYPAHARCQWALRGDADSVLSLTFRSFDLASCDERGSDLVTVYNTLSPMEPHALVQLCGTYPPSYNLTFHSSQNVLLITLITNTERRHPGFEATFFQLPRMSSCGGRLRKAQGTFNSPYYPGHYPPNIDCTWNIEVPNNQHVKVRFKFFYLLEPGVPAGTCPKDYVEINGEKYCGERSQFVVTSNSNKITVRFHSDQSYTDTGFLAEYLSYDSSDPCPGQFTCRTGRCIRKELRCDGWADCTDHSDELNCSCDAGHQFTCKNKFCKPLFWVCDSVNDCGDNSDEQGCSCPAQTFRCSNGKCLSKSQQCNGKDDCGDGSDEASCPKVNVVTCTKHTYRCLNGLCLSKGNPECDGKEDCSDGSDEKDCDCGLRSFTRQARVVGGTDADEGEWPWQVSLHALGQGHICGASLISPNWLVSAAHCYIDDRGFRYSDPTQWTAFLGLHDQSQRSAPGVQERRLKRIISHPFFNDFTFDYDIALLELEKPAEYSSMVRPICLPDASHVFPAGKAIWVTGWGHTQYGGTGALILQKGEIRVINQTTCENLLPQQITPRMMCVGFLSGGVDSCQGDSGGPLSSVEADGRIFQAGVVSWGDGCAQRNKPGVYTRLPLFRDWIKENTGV
The assay can be described thus: Matriptase enzyme inhibition (published assays). In kind it is biochemical.

Another assay has as its target Factor Xa (Homo sapiens, UniProt P00742). Briefly: Factor Xa enzyme inhibition (published assays). It counts as biochemical.
The test system of assay [1] is VSV-SARS-CoV-2-Spike protein Pseudotype virus. Briefly: microbe, parasite or virus in culture. It counts as cell-based. The conditions noted are these: read-out: VSV-SARS-CoV-2 Calu-3 EC50.
The subject of a further assay is wild-type SARS-CoV-2. Briefly: microbe, parasite or virus in culture. In kind it is cell-based. The conditions noted are these: Severe acute respiratory syndrome coronavirus 2, Calu-3, 72 h, read-out: SARS-CoV-2 Wild-type Calu-3 IC50 (nM).
For another assay, the target named is Trypsin (Bos taurus, UniProt P00760). The assay can be described thus: Protease profiling panel, 10-dose IC50. In kind it is biochemical. The conditions noted are these: values lower than 1.02E-09 M estimated from best curve.
Sequence of Trypsin (P00760 24-246): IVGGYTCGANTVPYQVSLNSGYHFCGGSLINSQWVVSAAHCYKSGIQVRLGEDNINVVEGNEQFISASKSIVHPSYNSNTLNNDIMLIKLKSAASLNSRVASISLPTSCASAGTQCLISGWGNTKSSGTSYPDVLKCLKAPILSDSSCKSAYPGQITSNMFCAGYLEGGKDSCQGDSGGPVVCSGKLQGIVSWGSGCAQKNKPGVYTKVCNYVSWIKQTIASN
In the next assay the target is Kallikrein 12 (Homo sapiens, UniProt Q9UKR0). Briefly: Protease profiling panel, 10-dose IC50. It counts as biochemical.
In the next assay the target is Urokinase (Homo sapiens, UniProt P00749). Briefly: Protease profiling panel, 10-dose IC50. In kind it is biochemical.
The target in another assay is Matriptase 2 (Homo sapiens, UniProt Q8IU80). The assay can be described thus: Protease profiling panel, 10-dose IC50. In kind it is biochemical. The conditions noted are these: values lower than 1.02E-09 M estimated from best curve.
Sequence of Matriptase 2 (Q8IU80 whole entry, species assumed): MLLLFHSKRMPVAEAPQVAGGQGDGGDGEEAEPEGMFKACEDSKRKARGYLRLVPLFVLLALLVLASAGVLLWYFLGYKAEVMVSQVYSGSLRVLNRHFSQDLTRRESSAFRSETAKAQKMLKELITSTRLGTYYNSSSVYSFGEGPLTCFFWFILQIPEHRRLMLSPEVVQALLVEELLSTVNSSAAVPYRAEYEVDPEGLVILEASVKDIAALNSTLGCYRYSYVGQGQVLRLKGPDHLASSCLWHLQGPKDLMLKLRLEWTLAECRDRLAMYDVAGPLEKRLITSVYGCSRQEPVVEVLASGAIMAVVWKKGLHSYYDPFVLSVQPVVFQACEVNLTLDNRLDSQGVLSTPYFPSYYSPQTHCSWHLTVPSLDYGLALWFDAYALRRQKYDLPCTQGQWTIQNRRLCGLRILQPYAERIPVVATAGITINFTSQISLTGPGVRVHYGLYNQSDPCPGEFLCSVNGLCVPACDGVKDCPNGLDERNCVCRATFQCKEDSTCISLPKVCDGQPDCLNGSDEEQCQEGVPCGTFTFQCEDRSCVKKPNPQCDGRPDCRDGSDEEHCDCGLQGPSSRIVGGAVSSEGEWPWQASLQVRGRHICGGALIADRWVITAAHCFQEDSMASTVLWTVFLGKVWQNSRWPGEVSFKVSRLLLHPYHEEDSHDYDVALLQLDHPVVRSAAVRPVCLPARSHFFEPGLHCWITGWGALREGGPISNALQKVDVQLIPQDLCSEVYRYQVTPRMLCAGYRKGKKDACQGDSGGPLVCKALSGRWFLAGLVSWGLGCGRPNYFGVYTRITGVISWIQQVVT
The next assay has as its target Plasmin (Homo sapiens, UniProt P00747). The assay can be described thus: Protease profiling panel, 10-dose IC50. It counts as biochemical.
Another assay has as its target Plasma Kallikrein (Homo sapiens, UniProt P03952). The assay can be described thus: Protease profiling panel, 10-dose IC50. In kind it is biochemical.
In another assay the target is Kallikrein 5 (Homo sapiens, UniProt Q9Y337). Briefly: Protease profiling panel, 10-dose IC50. In kind it is biochemical.
The target of a further assay is Tryptase g1 (Homo sapiens, UniProt Q9NRR2). Briefly: Protease profiling panel, 10-dose IC50. In kind it is biochemical. The conditions noted are these: values lower than 1.02E-09 M estimated from best curve.
Sequence of Tryptase g1 (Q9NRR2 20-321): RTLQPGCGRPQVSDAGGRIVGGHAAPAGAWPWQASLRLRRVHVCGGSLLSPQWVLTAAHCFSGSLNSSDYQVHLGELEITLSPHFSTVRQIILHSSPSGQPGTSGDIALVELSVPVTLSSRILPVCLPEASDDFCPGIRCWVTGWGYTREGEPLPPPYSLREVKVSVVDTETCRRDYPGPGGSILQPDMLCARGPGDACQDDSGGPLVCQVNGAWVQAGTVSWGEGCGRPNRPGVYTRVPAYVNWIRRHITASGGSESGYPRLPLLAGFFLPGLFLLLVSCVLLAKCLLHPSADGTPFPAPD
Another assay concerns the target Kallikrein 14 (Homo sapiens, UniProt Q9P0G3). The assay can be described thus: Protease profiling panel, 10-dose IC50. In kind it is biochemical.
Another assay concerns the target FXa (Homo sapiens, UniProt P00742). The assay can be described thus: Protease profiling panel, 10-dose IC50. In kind it is biochemical.
The next assay addresses Kallikrein 13 (Homo sapiens, UniProt Q9UKR3). Briefly: Protease profiling panel, 10-dose IC50. In kind it is biochemical.
The target in the next assay is Kallikrein 7 (Homo sapiens, UniProt P49862). The assay can be described thus: Protease profiling panel, 10-dose IC50. It counts as biochemical.
Another assay has as its target Tryptase b2 (Homo sapiens, UniProt P20231). The assay can be described thus: Protease profiling panel, 10-dose IC50. The conditions noted are these: values lower than 1.02E-09 M estimated from best curve. It counts as biochemical.
For another assay, the target named is Thrombin a (Homo sapiens, UniProt P00734). The assay can be described thus: Protease profiling panel, 10-dose IC50. In kind it is biochemical.
The target of another assay is TMPRSS2 protease domain (Homo sapiens, UniProt O15393). In kind it is biochemical.
Sequence of TMPRSS2 protease domain (O15393 256-492): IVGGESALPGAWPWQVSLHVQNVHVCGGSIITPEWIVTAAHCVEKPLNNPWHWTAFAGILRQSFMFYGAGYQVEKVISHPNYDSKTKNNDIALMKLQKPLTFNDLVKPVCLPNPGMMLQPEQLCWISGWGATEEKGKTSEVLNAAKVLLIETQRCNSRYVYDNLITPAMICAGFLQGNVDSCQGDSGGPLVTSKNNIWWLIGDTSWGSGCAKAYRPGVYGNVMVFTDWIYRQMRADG
In a further assay the target is Kallikrein 1 (Homo sapiens, UniProt P06870). Briefly: Protease profiling panel, 10-dose IC50. It counts as biochemical.
In a further assay the target is Proteinase A. It counts as biochemical.

Sequence of Factor Xa (P00742 235-488 limits assumed): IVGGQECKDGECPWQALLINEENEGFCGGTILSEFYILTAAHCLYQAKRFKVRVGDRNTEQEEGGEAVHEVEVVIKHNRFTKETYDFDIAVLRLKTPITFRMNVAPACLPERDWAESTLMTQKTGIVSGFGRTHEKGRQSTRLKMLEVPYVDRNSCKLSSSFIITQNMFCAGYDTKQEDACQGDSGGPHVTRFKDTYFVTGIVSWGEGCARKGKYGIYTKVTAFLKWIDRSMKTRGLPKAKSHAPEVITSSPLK
Sequence of Factor Xa (P00742 41-179 partner limits assumed): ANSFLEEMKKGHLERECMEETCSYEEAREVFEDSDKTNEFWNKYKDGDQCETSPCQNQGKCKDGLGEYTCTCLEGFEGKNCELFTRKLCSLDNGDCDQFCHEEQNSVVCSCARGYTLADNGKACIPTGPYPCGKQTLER
Sequence of Hepsin (P05981 whole entry): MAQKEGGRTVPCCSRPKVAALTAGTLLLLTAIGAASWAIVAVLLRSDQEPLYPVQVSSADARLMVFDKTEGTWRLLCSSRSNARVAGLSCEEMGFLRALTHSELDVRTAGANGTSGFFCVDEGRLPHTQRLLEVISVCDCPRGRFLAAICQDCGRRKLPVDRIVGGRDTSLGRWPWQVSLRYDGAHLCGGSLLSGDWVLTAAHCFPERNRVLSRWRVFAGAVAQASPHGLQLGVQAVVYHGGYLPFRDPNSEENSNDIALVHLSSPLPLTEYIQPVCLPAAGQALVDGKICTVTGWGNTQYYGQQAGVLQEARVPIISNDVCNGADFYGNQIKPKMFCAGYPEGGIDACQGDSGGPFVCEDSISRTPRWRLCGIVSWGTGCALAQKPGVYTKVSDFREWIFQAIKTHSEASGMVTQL
Sequence of Plasmin (P00747 581-810 limits assumed, species assumed): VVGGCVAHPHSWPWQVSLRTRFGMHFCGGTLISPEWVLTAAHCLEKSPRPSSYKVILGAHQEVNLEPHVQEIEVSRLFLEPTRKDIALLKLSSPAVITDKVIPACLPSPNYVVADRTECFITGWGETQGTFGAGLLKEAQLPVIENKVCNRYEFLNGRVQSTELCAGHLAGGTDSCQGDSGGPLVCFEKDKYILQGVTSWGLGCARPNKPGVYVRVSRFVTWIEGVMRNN
Sequence of Plasmin (P00747 97-580 partner limits assumed, species assumed): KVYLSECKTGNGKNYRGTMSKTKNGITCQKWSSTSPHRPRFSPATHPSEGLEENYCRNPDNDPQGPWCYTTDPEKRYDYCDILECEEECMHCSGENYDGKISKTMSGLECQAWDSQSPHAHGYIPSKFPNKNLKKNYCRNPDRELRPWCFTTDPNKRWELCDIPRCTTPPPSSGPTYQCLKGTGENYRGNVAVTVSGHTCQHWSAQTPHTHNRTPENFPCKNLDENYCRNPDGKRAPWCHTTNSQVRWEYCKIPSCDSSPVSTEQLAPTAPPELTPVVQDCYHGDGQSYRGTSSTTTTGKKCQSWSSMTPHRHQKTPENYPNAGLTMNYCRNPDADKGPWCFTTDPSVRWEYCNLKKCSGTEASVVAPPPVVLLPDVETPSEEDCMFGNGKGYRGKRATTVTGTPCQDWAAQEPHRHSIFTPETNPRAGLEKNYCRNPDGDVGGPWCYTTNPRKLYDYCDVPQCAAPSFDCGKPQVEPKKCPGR
Sequence of Plasma Kallikrein (P03952 391-638 limits assumed, species assumed): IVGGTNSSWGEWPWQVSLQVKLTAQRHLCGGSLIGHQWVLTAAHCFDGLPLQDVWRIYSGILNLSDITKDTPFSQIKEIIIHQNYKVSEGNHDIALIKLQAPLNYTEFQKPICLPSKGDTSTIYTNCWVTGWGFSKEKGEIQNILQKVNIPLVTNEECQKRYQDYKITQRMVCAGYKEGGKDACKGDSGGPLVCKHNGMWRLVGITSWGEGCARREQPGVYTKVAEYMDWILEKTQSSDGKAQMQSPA
Sequence of Plasma Kallikrein (P03952 20-390 partner limits assumed, species assumed): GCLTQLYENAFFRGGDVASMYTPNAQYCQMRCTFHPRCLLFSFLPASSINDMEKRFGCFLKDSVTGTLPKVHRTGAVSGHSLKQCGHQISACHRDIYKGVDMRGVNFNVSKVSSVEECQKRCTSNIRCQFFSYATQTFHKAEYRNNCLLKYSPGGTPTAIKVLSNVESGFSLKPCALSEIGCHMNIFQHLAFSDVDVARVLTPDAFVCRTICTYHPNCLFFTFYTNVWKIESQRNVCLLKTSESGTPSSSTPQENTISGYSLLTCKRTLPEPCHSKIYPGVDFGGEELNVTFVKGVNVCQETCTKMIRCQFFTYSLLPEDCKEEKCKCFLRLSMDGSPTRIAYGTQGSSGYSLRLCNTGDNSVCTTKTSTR
Sequence of FXa (P00742 235-488 limits assumed): as the sequence (P00742 235-488 limits assumed) above
Sequence of FXa (P00742 41-179 partner limits assumed): as the sequence (P00742 41-179 partner limits assumed) above
Sequence of Tryptase b2 (P20231 31-275): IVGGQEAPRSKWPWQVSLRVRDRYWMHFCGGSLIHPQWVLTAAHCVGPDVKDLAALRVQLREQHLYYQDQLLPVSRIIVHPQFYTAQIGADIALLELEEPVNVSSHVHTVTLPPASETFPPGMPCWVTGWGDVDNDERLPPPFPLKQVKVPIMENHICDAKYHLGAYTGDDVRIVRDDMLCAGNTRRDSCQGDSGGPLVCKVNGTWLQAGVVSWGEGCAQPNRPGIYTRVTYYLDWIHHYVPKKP
Sequence of Kallikrein 14 (Q9P0G3 41-267, species assumed): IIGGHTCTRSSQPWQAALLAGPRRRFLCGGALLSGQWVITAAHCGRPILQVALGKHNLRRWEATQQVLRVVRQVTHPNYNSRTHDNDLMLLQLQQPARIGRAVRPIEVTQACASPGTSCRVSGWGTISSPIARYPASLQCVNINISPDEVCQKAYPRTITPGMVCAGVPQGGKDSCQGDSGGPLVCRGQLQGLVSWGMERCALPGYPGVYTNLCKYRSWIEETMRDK
Sequence of Papain (P00784 134-345): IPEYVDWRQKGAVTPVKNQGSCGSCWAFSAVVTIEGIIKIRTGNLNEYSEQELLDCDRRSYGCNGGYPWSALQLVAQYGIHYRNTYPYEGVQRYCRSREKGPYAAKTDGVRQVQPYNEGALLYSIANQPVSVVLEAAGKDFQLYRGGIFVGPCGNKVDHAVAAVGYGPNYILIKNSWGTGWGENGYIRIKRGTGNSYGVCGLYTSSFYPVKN

Regarding `CC(C)C[C@H](NC(=O)[C@H]1O[C@@H]1C(=O)O)C(=O)NCCCCN=C(N)N` [Compound E64, E64], the IC50 stood at 1.73 nM against Cathepsin S; 1180 nM against Cathepsin C; 3.89 nM against Cathepsin V; 35.6 nM at Cathepsin H; 7.33 nM against Cathepsin B; 0.24 nM against Papain. For the same compound, the IC50 at Calpain 1 worked out at 47.1 nM; at Cathepsin L, 12.4 nM.

For Cyclo(DQK)R-kbt [Compound 20], the IC50 was 16100 nM against HGFA; above 20000 nM on Thrombin; 22 nM against Hepsin; 7.7 nM against Matriptase; above 20000 nM on Factor Xa. Also, the concentration for a half-maximal effect (EC50) in assay [1] stood at 138 nM.

Consider `CC(=O)N[C@@H](CO)C(=O)N[C@@H](CCCCN)C(=O)N[C@@H](Cc1ccccc1)C(=O)N[C@@H](CCCNC(=N)N)C(=O)c1nccs1` [Compound 9, Ac-SKFR-kt], for which the IC50 is 114 nM against HGFA; above 20000 nM on Thrombin; 17 nM against Hepsin; 6.1 nM against Matriptase; 1060 nM on Factor Xa.

Take `N=C(N)c1ccc2cc(OC(=O)c3ccc(N=C(N)N)cc3)ccc2c1` [Nafamostat, reference compound]: the IC50 worked out at 220 nM with wild-type SARS-CoV-2; 158 nM on HGFA; 5020 nM against Thrombin; 0.9 nM against Hepsin; 4570 nM against Factor Xa.

For the compound Cyclo(DMK)R-kbt [Compound 19], the IC50 against HGFA amounted to 3240 nM; against Thrombin it was 18500 nM; on Hepsin it was 5.9 nM; at Matriptase, 1 nM; against Factor Xa, 1390 nM. Besides, in assay [1], the EC50 came out at 119 nM.

Take Cyclo(allylGLY)R-kbt [Compound 21]: the IC50 is above 20000 nM at HGFA; above 20000 nM against Thrombin; 20 nM against Hepsin; 14 nM against Matriptase; 8810 nM on Factor Xa. The EC50 in [1] came out at 565 nM.

As to `CC(=O)NC(CO)C(=O)NC(CCCCN)C(=O)NC(CC(C)C)C(=O)NC(CCCNC(=N)N)C(=O)c1nc2ccccc2s1` (stereo not shown) [Compound 3, Ac-SKLR-kbt], the IC50 against HGFA is 66 nM; against Thrombin, above 20000 nM; against Hepsin, 0.32 nM; at Matriptase it was 6.1 nM; on Factor Xa, 3800 nM.

`CCC(CC)COC(=O)[C@H](C)N[P@](=O)(OC[C@H]1O[C@@](C#N)(c2ccc3c(N)ncnn23)[C@H](O)[C@@H]1O)Oc1ccccc1` [Remdesivir]: in the assay on wild-type SARS-CoV-2, the IC50 came to 1270 nM.

Consider `CC(=O)N[C@@H](CCCCN)C(=O)N[C@@H](CCC(N)=O)C(=O)N[C@@H](Cc1ccccc1)C(=O)N[C@@H](CCCNC(=N)N)C(=O)c1nccs1` [Compound 10, Ac-KQFR-kt], for which the IC50 on HGFA was 116 nM; against Thrombin, above 20000 nM; against Hepsin it was 1.2 nM; against Matriptase, 1.4 nM; against Factor Xa it was 158 nM.

On to `CC(=O)N[C@@H](Cc1c[nH]c2ccccc12)C(=O)N[C@@H](Cc1ccccc1)C(=O)N[C@@H](CCCNC(=N)N)C(=O)c1nc2ccccc2s1` [Compound 8, Ac-WFR-kbt], for which the IC50 against HGFA is 329 nM; at Thrombin it was above 20000 nM; against Hepsin, 7.6 nM; on Matriptase it was 5.7 nM; against Factor Xa, 22 nM.

For the compound `CC(=O)N[C@@H](CC(C)C)C(=O)N[C@@H](CC(C)C)C(=O)N[C@@H](CCCNC(=N)N)C(=O)c1nccs1` [Compound 18, Ac-LLR-kt], the IC50 amounted to 506 nM on HGFA, 4.6 nM against Hepsin and 56 nM at Matriptase. Also, the EC50 in assay [1] stood at 349 nM.

In the case of `CC(=O)N[C@@H](Cc1ccccc1)C(=O)N[C@@H](CC(C)C)C(=O)N[C@@H](Cc1ccccc1)C(=O)N[C@@H](CCCNC(=N)N)C(=O)c1nc2ccccc2s1` [Compound 12, Ac-FLFR-kbt], the IC50 on HGFA was 228 nM; against Thrombin it was above 20000 nM; at Hepsin, 2.9 nM; against Matriptase, 7.2 nM; against Factor Xa, 26 nM.

`CCOC(=O)c1ccc(OC(=O)CCCCCN=C(N)N)cc1` [Gabexate mesylate]: the IC50 was 30.7 nM at Trypsin; 94.3 nM at Kallikrein 12; 24.4 nM against Urokinase; 391 nM at Matriptase 2; 265 nM against Plasmin; 148 nM against Plasma Kallikrein. Moreover, the IC50 was 4940 nM against Kallikrein 5; 13.3 nM on Tryptase g1; 651 nM on Kallikrein 14; 1860 nM at FXa; 12200 nM against Kallikrein 13; 43100 nM against Kallikrein 7. The IC50 on Tryptase b2 is 9.7 nM; against Thrombin a, 1570 nM.

As for (MCA)-K-KARSAFA-K-(DnP), at TMPRSS2 protease domain, the Km was 0.6 ± 0.05 µM and the catalytic constant (kcat) stood at 0.07 s⁻¹.

With `CC(=O)N[C@H](Cc1c[nH]c2ccccc12)C(=O)N[C@@H](Cc1ccccc1)C(=O)N[C@@H](CCCNC(=N)N)C(=O)c1nc2ccccc2s1` [Compound 13, Ac-dWFR-kbt], the concentration for half-maximal inhibition (IC50) against HGFA is 27 nM; against Thrombin, 3700 nM; against Hepsin, 1.1 nM; at Matriptase it was 2.6 nM; on Factor Xa, 98 nM. Also, the EC50 in [1] amounted to 32 nM.

Consider `CC(=O)N[C@@H](CC(C)C)C(=O)N[C@@H](CC(C)C)C(=O)N[C@H](C=O)CCCNC(=N)N` [Leupeptin], for which the results for the concentration for half-maximal inhibition (IC50) against Kallikrein 1 and against Proteinase A were 4610 nM and 244000 nM, respectively.

Take `CC(=O)N[C@@H](CO)C(=O)N[C@@H](CCC(N)=O)C(=O)N[C@@H](CC(C)C)C(=O)N[C@@H](CCCNC(=N)N)C(=O)c1nccs1` [Compound 11, Ac-SQLR-kt]: the IC50 came out at 364 nM on HGFA, 0.68 nM against Hepsin and 18 nM at Matriptase.
